From patent US6908935B2, “Calcium receptor modulating agents” (Amgen Inc., priority 2002, dated 2005)

What follows are compounds tested against T1, human parathyroid cell Ca^2+ receptor (hPCaR) (Homo sapiens, UniProt P41180) (assay: [Ca2+]i measurement with fluo-3 in HEK 293 4.0-7 cells stably transfected with hPCaR). Conditions: fluo-3 fluorescence (485/530 nm), effect on [Ca^2+]i.
T1 construct: expressed in transfected cells
T1 sequence (P41180 20-1078): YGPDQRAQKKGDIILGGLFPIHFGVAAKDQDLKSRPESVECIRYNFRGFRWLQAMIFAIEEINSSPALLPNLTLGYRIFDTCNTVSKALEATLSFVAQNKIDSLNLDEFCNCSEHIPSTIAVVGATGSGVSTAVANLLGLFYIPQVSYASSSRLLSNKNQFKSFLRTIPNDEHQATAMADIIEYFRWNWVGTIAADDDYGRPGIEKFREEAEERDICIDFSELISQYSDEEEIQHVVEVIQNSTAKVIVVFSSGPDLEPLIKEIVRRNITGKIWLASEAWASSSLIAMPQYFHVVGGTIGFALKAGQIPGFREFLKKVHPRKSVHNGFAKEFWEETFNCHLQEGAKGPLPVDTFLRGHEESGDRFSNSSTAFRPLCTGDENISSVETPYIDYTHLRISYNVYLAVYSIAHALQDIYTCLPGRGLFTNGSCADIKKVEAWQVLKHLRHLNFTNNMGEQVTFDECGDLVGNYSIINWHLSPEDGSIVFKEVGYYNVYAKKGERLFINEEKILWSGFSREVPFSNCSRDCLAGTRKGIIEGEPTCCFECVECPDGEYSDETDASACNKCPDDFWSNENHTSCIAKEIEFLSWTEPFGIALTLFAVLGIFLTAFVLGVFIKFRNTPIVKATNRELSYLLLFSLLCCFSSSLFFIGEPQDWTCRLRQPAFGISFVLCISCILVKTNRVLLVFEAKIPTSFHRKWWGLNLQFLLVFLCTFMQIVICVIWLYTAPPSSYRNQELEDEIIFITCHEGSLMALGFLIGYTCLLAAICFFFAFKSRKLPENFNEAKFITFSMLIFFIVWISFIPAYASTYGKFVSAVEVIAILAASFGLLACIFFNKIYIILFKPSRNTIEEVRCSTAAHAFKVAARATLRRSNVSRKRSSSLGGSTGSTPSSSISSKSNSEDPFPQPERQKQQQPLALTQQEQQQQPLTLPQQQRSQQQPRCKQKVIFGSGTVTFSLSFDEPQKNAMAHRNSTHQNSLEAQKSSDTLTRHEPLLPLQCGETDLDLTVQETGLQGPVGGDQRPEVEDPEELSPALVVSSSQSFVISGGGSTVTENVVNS
Format: cell-based
In short: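 HEK 293 cells stably expressing human parathyroid Ca2+ receptor (clone 4.0-7), loaded with 2 μM fluo-3 AM for 30 min at 37 °C in parathyroid cell buffer (pH 7.45) with 1 mM CaCl2 and 0.5% BSA. After compound addition, intracellular Ca2+ followed by fluorescence at 485 nm excitation/530 nm emission.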
Work on `COc1ccc(-c2cc(CN[C@H](C)c3cccc4ccccc34)ccc2OC)nc1` [(1R)-N-((4-(methyloxy)-3-(5-(methyloxy)-2-pyridinyl)phenyl)methyl)-1-(1-naphthalenyl)ethanamine] yielded an EC50 of no more than 10 µM. Compound `Cc1ccc([C@@H](C)NCc2cccc(-c3ccccn3)c2)cc1` [(1R)-1-(4-methylphenyl)-N-((3-(2-pyridinyl)phenyl)methyl)ethanamine] has an EC50 of no more than 10 µM. `COc1ccc(CN[C@H](C)c2ccc3ccccc3c2)cc1-c1cnc(N)nc1` [5-(2-(methyloxy)-5-((((1R)-1-(2-naphthalenyl)ethyl)amino)methyl)phenyl)-2-pyrimidinamine] was tested, and the EC50 was no more than 10 µM. With `CCOC(=O)N1CCC(c2cc(CN[C@H](C)c3cccc(OC)c3)ccc2OC)CC1` [ethyl 4-(2-(methyloxy)-5-((((1R)-1-(3-(methyloxy)phenyl)ethyl)amino)methyl)phenyl)-1-piperidinecarboxylate] the EC50 was no more than 10 µM. In the case of `C[C@@H](NCc1cccc(-c2nccs2)c1)c1cccc2ccccc12` [Example 217, (1R)-1-(1-naphthalenyl)-N-((3-(1,3-thiazol-2-yl)phenyl)methyl)ethanamine], the EC50 is reported as no more than 10 µM. For `COc1ccc(-c2cc(CN[C@H](C)c3ccccc3)ccc2OC)nn1` [(1R)-N-((4-(methyloxy)-3-(6-(methyloxy)-3-pyridazinyl)phenyl)methyl)-1-phenylethanamine], the EC50 was no more than 10 µM. `COc1cccc([C@@H](C)NCc2ccc(F)c(-c3ccc(F)cc3)c2)c1` [(1R)-N-((4′,6-difluoro-1,1′-biphenyl-3-yl)methyl)-1-(3-(methyloxy)phenyl)ethanamine] showed an EC50 of no more than 10 µM. `C[C@@H](NCc1cccc(-c2ccc(C(F)(F)F)nc2)c1)c1cccc2ccccc12` [(1R)-1-(1-naphthalenyl)-N-((3-(6-(trifluoromethyl)-3-pyridinyl)phenyl)methyl)ethanamine] was tested, and the EC50 was no more than 10 µM. Work on `COc1ccc([C@@H](C)NCc2ccc(OC)c(-c3ccc4[nH]ccc4c3)c2)cc1` [(1R)-N-((3-(1H-indol-5-yl)-4-(methyloxy)phenyl)methyl)-1-(4-(methyloxy)phenyl)ethanamine] yielded an EC50 of no more than 10 µM. `COc1cccc([C@@H](C)NCc2ccc(Cl)c(-c3cccnc3)c2)c1` [(1R)-N-((4-chloro-3-(3-pyridinyl)phenyl)methyl)-1-(3-(methyloxy)phenyl)ethanamine] was tested, and the EC50 was no more than 10 µM. Work on `CC(=O)Nc1cccc(-c2cccc(CN[C@H](C)c3ccccc3)c2)c1` [N-(3′-((((1R)-1-phenylethyl)amino)methyl)-1,1′-biphenyl-3-yl)acetamide] yielded an EC50 of no more than 10 µM. With `COc1ccc(CN[C@H](C)c2ccc(C)cc2)cc1-c1nccs1` [(1R)-N-((4-(methyloxy)-3-(1,3-thiazol-2-yl)phenyl)methyl)-1-(4-methylphenyl)ethanamine] the EC50 was no more than 10 µM. Work on `COc1cccc([C@@H](C)NCc2ccc(OC)c(-c3ccc4nsnc4c3)c2)c1` [(1R)-N-((3-(2,1,3-benzothiadiazol-5-yl)-4-(methyloxy)phenyl)methyl)-1-(3-(methyloxy)phenyl)ethanamine] yielded an EC50 of no more than 10 µM. In the case of `COc1cccc([C@@H](C)NCc2ccc(C(F)(F)F)c(-c3ccc(C(F)(F)F)cc3)c2)c1` [(1R)-N-((4′,6-bis(trifluoromethyl)-1,1′-biphenyl-3-yl)methyl)-1-(3-(methyloxy)phenyl)ethanamine], the EC50 is reported as no more than 10 µM. With `CCN(CC)CCCOc1ccc(-c2cc(CN[C@H](C)c3cccc4ccccc34)ccc2OC)cn1` [N-((3-(6-((3-(diethylamino)propyl)oxy)-3-pyridinyl)-4-(methyloxy)phenyl)methyl)-N-((1R)-1-(1-naphthalenyl)ethyl)amine] the EC50 was no more than 10 µM. With `COc1ccc(CN[C@H](C)c2ccccc2)cc1-c1ccc(N)nc1` [5-(2-(methyloxy)-5-((((1R)-1-phenylethyl)amino)methyl)phenyl)-2-pyridinamine] the EC50 was no more than 10 µM. With `COc1ccc(CN[C@H](C)c2cccc3ccccc23)cc1-c1ccc(C(=O)N(C)C)cc1` [N,N-dimethyl-2′-(methyloxy)-5′-((((1R)-1-(1-naphthalenyl)ethyl)amino)methyl)-1,1′-biphenyl-4-carboxamide] the EC50 was no more than 10 µM. For `COc1ccc(CN[C@H](C)c2ccc(C)cc2)cc1-c1cncc(C(N)=O)c1` [5-(2-(methyloxy)-5-((((1R)-1-(4-methylphenyl)ethyl)amino)methyl)phenyl)-3-pyridinecarboxamide], the EC50 was no more than 10 µM. `COc1ccc([C@@H](C)NCc2cccc(-c3ccc(NC(=O)CCC(=O)O)nc3)c2)cc1` [4-((5-(3-((((1R)-1-(4-(methyloxy)phenyl)ethyl)amino)methyl)phenyl)-2-pyridinyl)amino)-4-oxobutanoic acid] was tested, and the EC50 was no more than 10 µM. `COc1ccc(CN[C@H](C)c2cccc3ccccc23)cc1-c1nccs1` [(1R)-N-((4-(methyloxy)-3-(1,3-thiazol-2-yl)phenyl)methyl)-1-(1-naphthalenyl)ethanamine] was tested, and the EC50 was no more than 10 µM. `COc1ccc(CN[C@H](C)c2cccc3ccccc23)cc1-c1ccc2c(cnn2C)c1` [(1R)-N-((3-(1-methyl-1H-indazol-5-yl)-4-(methyloxy)phenyl)methyl)-1-(1-naphthalenyl)ethanamine] showed an EC50 of no more than 10 µM. In the case of `COc1cccc([C@@H](C)NCc2cccc(-c3ccc(NC(C)=O)nc3)c2)c1` [N-(5-(3-((((1R)-1-(3-(methyloxy)phenyl)ethyl)amino)methyl)phenyl)-2-pyridinyl)acetamide], the EC50 is reported as no more than 10 µM. In the case of `COc1ccc(CN[C@H](C)c2cccc3ccccc23)cc1-c1ccc2c(ccn2CC(F)(F)F)c1` [(1R)-N-((4-(methyloxy)-3-(1-(2,2,2-trifluoroethyl)-1H-indol-5-yl)phenyl)methyl)-1-(1-naphthalenyl)ethanamine], the EC50 is reported as no more than 10 µM. Work on `COc1ccc(CN[C@H](C)c2ccccc2)cc1-c1ccc2nccnc2c1` [(1R)-N-((4-(methyloxy)-3-(6-quinoxalinyl)phenyl)methyl)-1-phenylethanamine] yielded an EC50 of no more than 10 µM. Work on `COc1cccc([C@@H](C)NCc2ccc(OC)c(-c3ccc4c(ccn4CC4CC4)c3)c2)c1` [(1R)-N-((3-(1-(cyclopropylmethyl)-1H-indol-5-yl)-4-(methyloxy)phenyl)methyl)-1-(3-(methyloxy)phenyl)ethanamine] yielded an EC50 of no more than 10 µM. Work on `C[C@@H](NCc1ccc(Cl)c(-c2ccc(OC(F)(F)F)cc2)c1)c1ccccc1` [(1R)-N-((6-chloro-4′-((trifluoromethyl)oxy)-1,1′-biphenyl-3-yl)methyl)-1-phenylethanamine] yielded an EC50 of no more than 10 µM. In the case of `COc1ccc(CN[C@H](C)c2cccc3ccccc23)cc1-c1ccc(C)nc1` [(1R)-N-((4-(methyloxy)-3-(6-methyl-3-pyridinyl)phenyl)methyl)-1-(1-naphthalenyl)ethanamine], the EC50 is reported as no more than 10 µM. Compound `COc1ccc(CN[C@H](C)c2ccccc2)cc1-c1cccnc1N1CCOCC1` [(1R)-N-((4-(methyloxy)-3-(2-(4-morpholinyl)-3-pyridinyl)phenyl)methyl)-1-phenylethanamine] has an EC50 of no more than 10 µM. `Cc1noc(C)c1-c1ccc(CN[C@H](C)c2cccc3ccccc23)cc1` [(1R)-N-((4-(3,5-dimethyl-4-isoxazolyl)phenyl)methyl)-1-(1-naphthalenyl)ethanamine] showed an EC50 of no more than 10 µM. Compound `COc1cccc([C@@H](C)NCc2ccc(OC)c(-c3ccc4ccn(C)c4c3)c2)c1` [(1R)-N-((3-(1-methyl-1H-indol-6-yl)-4-(methyloxy)phenyl)methyl)-1-(3-(methyloxy)phenyl)ethanamine] has an EC50 of no more than 10 µM. `COc1ccc(CN[C@H](C)c2ccc(C)cc2)cc1-c1cccc(C#N)c1` [2′-(methyloxy)-5′-((((1R)-1-(4-methylphenyl)ethyl)amino)methyl)-1,1′-biphenyl-3-carbonitrile] was tested, and the EC50 was no more than 10 µM. `COc1ccc(CN[C@H](C)c2cccc(F)c2)cc1-c1ccccc1` [(1R)-1-(3-fluorophenyl)-N-((6-(methyloxy)-1,1′-biphenyl-3-yl)methyl)ethanamine] showed an EC50 of no more than 10 µM. `COc1ccc(CN[C@H](C)c2ccc(C)cc2)cc1-c1ccc(F)cc1` [(1R)-N-((4′-fluoro-6-(methyloxy)-1,1′-biphenyl-3-yl)methyl)-1-(4-methylphenyl)ethanamine] showed an EC50 of no more than 10 µM. `COc1cccc([C@@H](C)NCc2ccc(OC)c(-c3cccc(C(N)=O)c3)c2)c1` [2′-(methyloxy)-5′-((((1R)-1-(3-(methyloxy)phenyl)ethyl)amino)methyl)-1,1′-biphenyl-3-carboxamide] gave an EC50 of no more than 10 µM. Compound `COc1ccc([C@@H](C)NCc2cccc(-c3ccc4c(c3)OCO4)c2)cc1` [(1R)-N-((3-(1,3-benzodioxol-5-yl)phenyl)methyl)-1-(4-(methyloxy)phenyl)ethanamine] has an EC50 of no more than 10 µM.
